# Assay results as given in patent US12115222B2, “Compositions and methods for improving the solubility of erectile dysfunction therapeutics” (Villya LLC, priority 2023, dated 2024).
# “And” between values parts separate entries of the source, which are not always exact repeats. Equal entries are not always repeated. Where two headings read alike, the source gives them in different places.
# What was measured:
# [1] = From the text: After solubilizing the sugar and the compound in ethanol or aqueous ethanol, the ethanol is evaporated for example under a high rotary vacuum. The powder resulting from the evaporation step is then resolubilized (dissolved) in water. Another solvent can be methanol at 80% methanol, 95% (ACS grade) or greater (to 100% methanol) as well as combinations of methanol and ethanol or methanol and water. After solubilizing the sugar and the compound in ethanol or aqueous ethanol, the ethanol is evaporated for example under a high rotary vacuum. The powder resulting from the evaporation step is then resolubilized (dissolved) in water.
# Generally, ingredients are deposited into a sealed container with ethanol and vortex-mixed to form a solution. The solution is subjected to centrifugation. The ethanol is evaporated off and the dried mixture was dissolved in water. This mixture is centrifuged again and the supernatant is filtered through a membrane. […] In one embodiment, the admixing process involves dissolving the PSD and sugar in the ethanol while stirring and adjusting the pH as necessary to obtain complete dissolution and a clear reaction mixture. The reaction mixture can then be dried to remove the ethanol. No further water washing or filtering is needed.
# In this example, an oven-dried single-neck RB flask equipped with a magnetic stir bar was used. […] The reaction mixture was vigorously stirred at room temperature for 30 min at 20° C. […] The white solid was dried using vacuum drying performed at room temperature and a high vacuum pump for about one hour to remove the ethanol (EtOH) completely using an Edvards Model #RV8 […], a Heidolph type Basis Hei-VAP Value, No. 560-00000-0101. The high vacuum pump was connected to a cooling trap and the trap was connected to the RB flask. Vacuum strength was about 1 mm Hg.
# The white foamy solid was dried over a high vacuum at room temperature for an additional hour to remove the water completely, by ascertaining changes in weight loss. Drying continued until further weight loss was not observed.
# Step 1: In an oven-dried single neck RB flask equipped with magnetic stir and septa (flask cap), 5 mg sildenafil (0.01054 mmol) and 16.95 mg stevioside (1:2 molar ratio) were weighed into the RB flask and dissolved in 85% ethanol (˜2.0 mL, denatured 85% ethanol) at ambient temperature. The reaction mixture was vigorously stirred at room temperature for 30 min. […] The white solid was dried over a high vacuum for an hour to remove the ethanol completely (no further reduction in weight was observed).
# Step 2: The obtained white solid was then dissolved in 2.0 mL water at room temperature in an RB flask with a magnetic stir bar. The reaction mixture was stirred at ambient temperature for 30 min. […] The white foamy solid was dried over a high vacuum at room temperature for an additional hour to remove the water completely. The weight of the flask was checked while drying until no further weight loss was observed.
# [2] = Stability of the dissolved complex on standing (precipitate); format: physicochemical
# Experimental: […] […] The clear solution was then dried as described in Step 2 in Example 8. The 10 mg dried solid was then dissolved in 0.6 mL D20.
# For NMR, 10 mg of the solid sample obtained was dissolved in 0.6 mL D20. The dissolved 10 mg sample again produced a clear and homogeneous solution. […] The complex in D20 remained stable for 9 days without any observable precipitate forming.
# [3] = system: S. mansoni newly transformed schistosomula (NTS)
# [4] = drug alone; cited from earlier work
# [5] = Non-caloric sugar solubility in water and 95% ethanol
# Experimental: In this experiment, the following sugars were compared for solubility: rubusoside, dulcoside A, rebaudioside B, dulcoside B, and rebaudioside D. Approximately 5.0 mg of each sugar was attempted to be dissolved in 0.6 mL water and vortexed for 2 minutes at room temperature.
# In another experiment, 50 mg stevia was dissolved in either 2.0 mL water or 2.0 mL 95% ethanol.
# [6] = cited from earlier work
# [7] = approximately 5.0 mg in 0.6 mL water, vortexed 2 minutes, room temperature
compound,measurement,setting,value
O=C(C1CCCCC1)N1CC(=O)N2CCc3ccccc3C2C1 (stereo not shown) [Praziquantel],solubility by 1H-NMR,[1],0.65
same,solubility by 1H-NMR analysis,[1],0.89
same,solubility for the drug by 1H-NMR analysis,[1],1.73
same,solubility in 95% ethanol with Dulcoside A,[1],insoluble
same,solubility in 95% ethanol with rebaudioside B,[1],insoluble
same,solubility in 95% ethanol with rebaudioside D,[1],insoluble
same,solubility in water by NMR,[1],only partial solubility
same,solubility in water in complex with dulcoside B,[1],well soluble
same,solubility in water with D-fructose (NMR),[1],did not make praziquantel soluble or more soluble
same,solubility in water with rebaudioside D,[1],insoluble
same,time until the water solution became white and turbid,"[2]; Example 16, praziquantel:rubusoside 1:2 molar, 0.1 N HCl, pH ~4.7",15 min
same,24 hr Exposure LD50,[3]; 24 hr exposure,33.5 ± 5.71 µM
same,72 hr exposure LD50,[3]; 72 hr exposure (table),24.3 ± 0.67 µM
same,LD50,[3]; exposure after 72 hours,33.9 ± 0.64 µM
same,"Solubility of Praziquantel In Ethanol (95%), without sugar",[4],9.7 g/100 mL
same,"Solubility of Praziquantel In Water, without sugar",[4],0.04 g/100 mL
"CCCc1nn(C)c2c(=O)[nH]c(-c3cc(S(=O)(=O)N4CCN(C)CC4)ccc3OCC)nc12 [Sildenafil, 5-[2-ethoxy-5-(4-methylpiperazin-1-yl)sulfonylphenyl]-1-methyl-3-propyl-6H-pyrazolo[4,3-d]pyrimidin-7-one]",solubility in water by 1H-NMR,[1],100%
same,solubility in water by NMR,[1]; 30 min,100%
same,time remained in solution in D2O,"[2]; Example 14, 1:3 molar with citric acid",3 days
C=C1C[C@@]23CC[C@H]4[C@@](C)(CCC[C@@]4(C)C(=O)O[C@@H]4O[C@H](CO)[C@@H](O)[C@H](O)[C@H]4O)[C@@H]2CC[C@]1(O[C@@H]1O[C@H](CO)[C@@H](O)[C@H](O[C@@H]2O[C@H](CO)[C@@H](O)[C@H](O)[C@H]2O)[C@H]1O[C@@H]1O[C@H](CO)[C@@H](O)[C@H](O)[C@H]1O)C3 [rebaudioside A],solubility of the sugar in 95% ethanol (observation),[5]; 50 mg in 2.0 mL 95% ethanol,either insoluble or partially soluble
same,solubility of the sugar in water (observation),[5]; 50 mg in 2.0 mL water,soluble
same,Sugar Solubility in 95% EtOH,[6],Poorly soluble
same,Sugar Solubility in Water,[6],Poorly soluble
C=C1C[C@@]23CC[C@H]4[C@@](C)(CCC[C@@]4(C)C(=O)O[C@@H]4O[C@H](CO)[C@@H](O)[C@H](O)[C@H]4O[C@@H]4O[C@H](CO)[C@@H](O)[C@H](O)[C@H]4O)[C@@H]2CC[C@]1(O[C@@H]1O[C@H](CO)[C@@H](O)[C@H](O[C@@H]2O[C@H](CO)[C@@H](O)[C@H](O)[C@H]2O)[C@H]1O[C@@H]1O[C@H](CO)[C@@H](O)[C@H](O)[C@H]1O)C3 [rebaudioside D],solubility of the sugar in water (observation),[5]; [7],partially soluble
same,Sugar Solubility in 95% EtOH,[6],Insoluble
same,Sugar Solubility in Water,[6],100 mg/ml and 88.56 mM
"OC[C@H]1O[C@H](O[C@]2(CCl)O[C@H](CCl)[C@@H](O)[C@@H]2O)[C@H](O)[C@@H](O)[C@H]1Cl [sucralose, 1,6-dichloro-1,6-dideoxy-β-D-fructofuranosyl-4-chloro-4-deoxy-α-D-galactopyranoside]",solubility of the sugar in 95% ethanol (observation),[5]; 50 mg in 2.0 mL 95% ethanol,slowly soluble
same,time to dissolve in 95% ethanol,"[5]; 50 mg in 2.0 mL 95% ethanol, room temperature",2 h
same,solubility of the sugar in water (observation),[5]; 50 mg in 2.0 mL water,soluble
same,Sugar Solubility in 95% EtOH,[6]; at 20° C.,283 g/L at 20 °C
same,Sugar Solubility in Water,[6]; at 20° C.,110 g/L at 20 °C
dulcoside A,solubility of the sugar in water (observation),[5]; [7],partially soluble
same,Sugar Solubility in 95% EtOH,[6],Partly soluble
same,Sugar Solubility in Water,[6],2.28 g/L
rebaudioside B,solubility of the sugar in water (observation),[5]; [7],insoluble in water or poorly soluble
same,Sugar Solubility in 95% EtOH,[6],Poorly soluble
same,Sugar Solubility in Water,[6],Poorly soluble
